In PubChem BioAssay (NCI):
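Test compounds were applied to cells in 96-well plates for 48 hours at 5 doses. TGI denotes the concentration required for complete inhibition of growth.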 Where a SMILES comes first, the peptide text is derived from it. The star is where a group is joined. Cbz = O=C(OCc1ccccc1)*

What follows are compounds tested on SK-MEL-2 melanoma (assay: NCI anticancer screen, dose series, 48 h).
With `CCOC(=O)CCC(NC(=O)OCc1ccccc1)C(=O)NC(CCC(=O)OCC)C(=O)OCC` (centres undefined) (Cbz-Glu(OEt)-Glu(OEt)-OEt; configuration not given here) the TGI was > 100 µM. With `CCOC(=O)C(NC(=O)c1ccccc1)(N1CCN(c2cc3c(cc2F)c(=O)c(C(=O)O)cn3C2CC2)CC1)C(F)(F)F` (centres undefined) the TGI was 38.9 µM. With `COc1ccc(C2(CC(C)C)CCN(S(=O)(=O)c3ccc(C)cc3)C2)cc1OC` (centres undefined) the TGI was 47.2 µM. `O=c1cc(NNc2cccc(Cl)c2)[nH]c(=O)[nH]1` was tested, and the TGI was > 100 µM. `CCOC(=O)c1sc2nc(SC)nc(Nc3ccc4c(c3)OCCO4)c2c1N` showed a TGI of 33.7 µM. `CC1(C)OP(=O)(O)C=C1Sc1ccc([N+](=O)[O-])cc1[N+](=O)[O-]` was tested, and the TGI was > 100 µM.

These compounds were tested on SK-MEL-28 melanoma (assay: NCI anticancer screen, dose series, 48 h).
For `CCOC(=O)CCC(NC(=O)OCc1ccccc1)C(=O)NC(CCC(=O)OCC)C(=O)OCC` (centres undefined) (Cbz-Glu(OEt)-Glu(OEt)-OEt; configuration not given here), the TGI was > 100 µM. `CCOC(=O)C(NC(=O)c1ccccc1)(N1CCN(c2cc3c(cc2F)c(=O)c(C(=O)O)cn3C2CC2)CC1)C(F)(F)F` (centres undefined) gave a TGI of 74.6 µM. In the case of `COc1ccc(C2(CC(C)C)CCN(S(=O)(=O)c3ccc(C)cc3)C2)cc1OC` (centres undefined), the TGI is reported as > 100 µM. In the case of `O=c1cc(NNc2cccc(Cl)c2)[nH]c(=O)[nH]1`, the TGI is reported as > 100 µM. With `CCOC(=O)c1sc2nc(SC)nc(Nc3ccc4c(c3)OCCO4)c2c1N` the TGI was > 100 µM. `CC1(C)OP(=O)(O)C=C1Sc1ccc([N+](=O)[O-])cc1[N+](=O)[O-]` was tested, and the TGI was > 100 µM.

Each compound was assayed on SK-MEL-5 melanoma (assay: NCI anticancer screen, dose series, 48 h).
In the case of `COC(=O)C1=C(OC)[C@H]2C#C/C=C\C#C[C@@H]3Nc4c(cc(O)c5c4C(=O)c4ccccc4C5=O)[C@]24O[C@@]34[C@H]1C`, the TGI is reported as < 0.0149 µM. For `CCOC(=O)CCC(NC(=O)OCc1ccccc1)C(=O)NC(CCC(=O)OCC)C(=O)OCC` (centres undefined) (Cbz-Glu(OEt)-Glu(OEt)-OEt; configuration not given here), the TGI was > 100 µM. `CCOC(=O)C(NC(=O)c1ccccc1)(N1CCN(c2cc3c(cc2F)c(=O)c(C(=O)O)cn3C2CC2)CC1)C(F)(F)F` (centres undefined) gave a TGI of 29.4 µM. With `COc1ccc(C2(CC(C)C)CCN(S(=O)(=O)c3ccc(C)cc3)C2)cc1OC` (centres undefined) the TGI was 32.6 µM. With `O=c1cc(NNc2cccc(Cl)c2)[nH]c(=O)[nH]1` the TGI was > 100 µM. `CCOC(=O)c1sc2nc(SC)nc(Nc3ccc4c(c3)OCCO4)c2c1N` was tested, and the TGI was 26.7 µM. In the case of `CC1(C)OP(=O)(O)C=C1Sc1ccc([N+](=O)[O-])cc1[N+](=O)[O-]`, the TGI is reported as > 100 µM.

Each compound was assayed on SK-OV-3 ovarian (assay: NCI anticancer screen, dose series, 48 h).
`CCOC(=O)CCC(NC(=O)OCc1ccccc1)C(=O)NC(CCC(=O)OCC)C(=O)OCC` (centres undefined) (Cbz-Glu(OEt)-Glu(OEt)-OEt; configuration not given here) was tested, and the TGI was > 100 µM. In the case of `CCOC(=O)C(NC(=O)c1ccccc1)(N1CCN(c2cc3c(cc2F)c(=O)c(C(=O)O)cn3C2CC2)CC1)C(F)(F)F` (centres undefined), the TGI is reported as 80.2 µM. With `COc1ccc(C2(CC(C)C)CCN(S(=O)(=O)c3ccc(C)cc3)C2)cc1OC` (centres undefined) the TGI was > 100 µM. In the case of `O=c1cc(NNc2cccc(Cl)c2)[nH]c(=O)[nH]1`, the TGI is reported as > 100 µM. In the case of `CC1(C)OP(=O)(O)C=C1Sc1ccc([N+](=O)[O-])cc1[N+](=O)[O-]`, the TGI is reported as > 100 µM.

What follows are compounds tested on SN12C renal (assay: NCI anticancer screen, dose series, 48 h).
Work on `c1ccc2c(c1)Nc1cccc3c1c-2nc1ccccc13` yielded a TGI of 2.79 µM. `COC(=O)C1=C(OC)[C@H]2C#C/C=C\C#C[C@@H]3Nc4c(cc(O)c5c4C(=O)c4ccccc4C5=O)[C@]24O[C@@]34[C@H]1C` was tested, and the TGI was < 0.01 µM. `CCOC(=O)CCC(NC(=O)OCc1ccccc1)C(=O)NC(CCC(=O)OCC)C(=O)OCC` (centres undefined) (Cbz-Glu(OEt)-Glu(OEt)-OEt; configuration not given here) was tested, and the TGI was > 100 µM. `CCOC(=O)C(NC(=O)c1ccccc1)(N1CCN(c2cc3c(cc2F)c(=O)c(C(=O)O)cn3C2CC2)CC1)C(F)(F)F` (centres undefined) showed a TGI of 79.3 µM. `COc1ccc(C2(CC(C)C)CCN(S(=O)(=O)c3ccc(C)cc3)C2)cc1OC` (centres undefined) was tested, and the TGI was > 100 µM. `CCOC(=O)c1sc2nc(SC)nc(Nc3ccc4c(c3)OCCO4)c2c1N` was tested, and the TGI was 29.9 µM. With `CC1(C)OP(=O)(O)C=C1Sc1ccc([N+](=O)[O-])cc1[N+](=O)[O-]` the TGI was > 100 µM.

Each compound was assayed on SNB-19 CNS (assay: NCI anticancer screen, dose series, 48 h).
With `c1ccc2c(c1)Nc1cccc3c1c-2nc1ccccc13` the TGI was > 100 µM. For `CCOC(=O)CCC(NC(=O)OCc1ccccc1)C(=O)NC(CCC(=O)OCC)C(=O)OCC` (centres undefined) (Cbz-Glu(OEt)-Glu(OEt)-OEt; configuration not given here), the TGI was > 100 µM. For `CCOC(=O)C(NC(=O)c1ccccc1)(N1CCN(c2cc3c(cc2F)c(=O)c(C(=O)O)cn3C2CC2)CC1)C(F)(F)F` (centres undefined), the TGI was > 100 µM. In the case of `COc1ccc(C2(CC(C)C)CCN(S(=O)(=O)c3ccc(C)cc3)C2)cc1OC` (centres undefined), the TGI is reported as > 100 µM. In the case of `O=c1cc(NNc2cccc(Cl)c2)[nH]c(=O)[nH]1`, the TGI is reported as > 100 µM. For `CCOC(=O)c1sc2nc(SC)nc(Nc3ccc4c(c3)OCCO4)c2c1N`, the TGI was > 100 µM. For `CC1(C)OP(=O)(O)C=C1Sc1ccc([N+](=O)[O-])cc1[N+](=O)[O-]`, the TGI was > 100 µM.

What follows are compounds tested on SNB-75 CNS (assay: NCI anticancer screen, dose series, 48 h).
For `COC(=O)C1=C(OC)[C@H]2C#C/C=C\C#C[C@@H]3Nc4c(cc(O)c5c4C(=O)c4ccccc4C5=O)[C@]24O[C@@]34[C@H]1C`, the TGI was < 0.01 µM. With `CCOC(=O)CCC(NC(=O)OCc1ccccc1)C(=O)NC(CCC(=O)OCC)C(=O)OCC` (centres undefined) (Cbz-Glu(OEt)-Glu(OEt)-OEt; configuration not given here) the TGI was > 100 µM. For `CCOC(=O)C(NC(=O)c1ccccc1)(N1CCN(c2cc3c(cc2F)c(=O)c(C(=O)O)cn3C2CC2)CC1)C(F)(F)F` (centres undefined), the TGI was 69.9 µM. In the case of `COc1ccc(C2(CC(C)C)CCN(S(=O)(=O)c3ccc(C)cc3)C2)cc1OC` (centres undefined), the TGI is reported as > 100 µM. In the case of `O=c1cc(NNc2cccc(Cl)c2)[nH]c(=O)[nH]1`, the TGI is reported as > 100 µM. With `CC1(C)OP(=O)(O)C=C1Sc1ccc([N+](=O)[O-])cc1[N+](=O)[O-]` the TGI was > 100 µM.

Each compound was assayed on SR leukemia (assay: NCI anticancer screen, dose series, 48 h).
Compound `c1ccc2c(c1)Nc1cccc3c1c-2nc1ccccc13` has a TGI of 4.83 µM. With `COC(=O)C1=C(OC)[C@H]2C#C/C=C\C#C[C@@H]3Nc4c(cc(O)c5c4C(=O)c4ccccc4C5=O)[C@]24O[C@@]34[C@H]1C` the TGI was < 0.01 µM. `CCOC(=O)CCC(NC(=O)OCc1ccccc1)C(=O)NC(CCC(=O)OCC)C(=O)OCC` (centres undefined) (Cbz-Glu(OEt)-Glu(OEt)-OEt; configuration not given here) was tested, and the TGI was > 100 µM. Compound `CCOC(=O)C(NC(=O)c1ccccc1)(N1CCN(c2cc3c(cc2F)c(=O)c(C(=O)O)cn3C2CC2)CC1)C(F)(F)F` (centres undefined) has a TGI of 45.2 µM. `COc1ccc(C2(CC(C)C)CCN(S(=O)(=O)c3ccc(C)cc3)C2)cc1OC` (centres undefined) was tested, and the TGI was > 100 µM.
